In patent publication US8450313B2, “2,3-diaryl- or heteroaryl-substituted 1,1,1-trifluoro-2-hydroxypropyl compounds” (Hoffmann-La Roche Inc., priority 2009, dated 2013):

Target: T1, full length human recombinant glucocorticoid receptor (Homo sapiens, UniProt P04150)
T1 construct: It contains some partially purified full length human recombinant glucocorticoid receptor; purchased Panvera/Invitrogen PV4302
T1 sequence (P04150 1-777): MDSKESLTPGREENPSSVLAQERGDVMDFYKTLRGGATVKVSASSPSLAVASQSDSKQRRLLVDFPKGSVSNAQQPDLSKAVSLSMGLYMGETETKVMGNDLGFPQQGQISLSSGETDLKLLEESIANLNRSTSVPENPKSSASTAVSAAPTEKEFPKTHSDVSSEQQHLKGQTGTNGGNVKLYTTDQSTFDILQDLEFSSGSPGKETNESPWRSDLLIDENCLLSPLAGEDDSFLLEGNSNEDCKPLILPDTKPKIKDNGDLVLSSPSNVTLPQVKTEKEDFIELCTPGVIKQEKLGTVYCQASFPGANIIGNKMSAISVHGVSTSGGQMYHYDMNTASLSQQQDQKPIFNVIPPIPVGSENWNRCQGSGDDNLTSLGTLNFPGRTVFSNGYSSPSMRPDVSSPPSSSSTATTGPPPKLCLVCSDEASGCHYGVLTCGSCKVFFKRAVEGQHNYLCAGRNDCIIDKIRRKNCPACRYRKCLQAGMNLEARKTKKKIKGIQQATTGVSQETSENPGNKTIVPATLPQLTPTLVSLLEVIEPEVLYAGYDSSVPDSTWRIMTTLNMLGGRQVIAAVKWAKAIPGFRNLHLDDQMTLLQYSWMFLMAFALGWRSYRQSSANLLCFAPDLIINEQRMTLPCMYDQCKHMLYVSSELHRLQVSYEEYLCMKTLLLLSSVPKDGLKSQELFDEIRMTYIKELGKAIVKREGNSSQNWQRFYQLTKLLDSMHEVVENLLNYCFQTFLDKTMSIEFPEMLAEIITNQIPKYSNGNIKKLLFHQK
Test: Glucocorticoid Receptor Binding Assay (Glucocorticoid Receptor Competitor Assay far red kit, fluorescence polarization)
Conditions: competition with fluorescent GR ligand Fluormone GS Far Red, 3 hours at 22° C., pH 7.4; Ki calculated from IC50 by Cheng-Prusoff
Procedure, shortened: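 Compounds in serial dilution (from intermediate 4.2% DMSO stock) displace Fluormone GS Far Red from full-length human recombinant GR with stabilizing peptide, pH 7.4, incubated 3 hours at 22° C dark. Polarized fluorescence (610–660 nm) gives IC50 via sigmoidal fit, converted to Ki by Cheng-Prusoff.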

| SMILES | Ki |
| --- | --- |
| COC(=O)c1ccc(-c2ccc([C@H](C)[C@](O)(c3ccc4c(c3)N(C)C(=O)CO4)C(F)(F)F)c(Cl)c2)cc1F (racemic) [Example 25, 3′-Chloro-3-fluoro-4′-[3,3,3-trifluoro-2-hydroxy-1-methyl-2-(4-methyl-3-oxo-3,4-dihydro-2H-benzo[1,4]oxazin-6-yl)-propyl]-biphenyl-4-carboxylic acid methyl ester] | 2.8 nM |
| CCOC(=O)c1ccc(Oc2ccc([C@@H](C)[C@@](O)(c3ccc4c(c3)N(C)C(=O)CO4)C(F)(F)F)c(Cl)c2)nc1C(F)(F)F (racemic) [Example 214, 6-{3-Chloro-4-[3,3,3-trifluoro-2-hydroxy-1-methyl-2-(4-methyl-3-oxo-3,4-dihydro-2H-benzo[1,4]oxazin-6-yl)-propyl]-phenoxy}-2-trifluoromethyl-nicotinic acid ethyl ester] | 4.1 nM |
| CCN1C(=O)COc2ccc([C@](O)([C@H](C)c3ccc(-c4ccc(Cl)c(C(=O)O)c4)cc3Cl)C(F)(F)F)cc21 (relative stereo) [Example 66, 4,3′-Dichloro-4′-[2-(4-ethyl-3-oxo-3,4-dihydro-2H-benzo[1,4]oxazin-6-yl)-3,3,3-trifluoro-2-hydroxy-1-methyl-propyl]-biphenyl-3-carboxylic acid] | 191 nM |
| C[C@H](c1ccc(Oc2ccc(C(=O)O)c(Cl)c2)cc1Cl)[C@@](O)(c1ccc2[nH]c(=O)cc(C(F)(F)F)c2c1)C(F)(F)F (stereo in doubt) [Example 140, 2-Chloro-4-{3-chloro-4-[3,3,3-trifluoro-2-hydroxy-1-methyl-2-(2-oxo-4-trifluoromethyl-1,2-dihydro-quinolin-6-yl)-propyl]-phenoxy}-benzoic acid] | 22 nM |
| C[C@@H](c1ccc(Oc2ccc(C(=O)O)c(F)c2)cc1Cl)[C@](O)(c1ccc2c(c1)n(C)c(=O)n2C)C(F)(F)F (stereo in doubt) [Example 88, 4-{3-Chloro-4-[2-(1,3-dimethyl-2-oxo-2,3-dihydro-1H-benzoimidazol-5-yl)-3,3,3-trifluoro-2-hydroxy-1-methyl-propyl]-phenoxy}-2-fluoro-benzoic acid] | 0.7 nM |
| C[C@H](c1ccc(-c2ccc(C(=O)O)cn2)cc1Cl)[C@@](O)(c1ccc2oc(=O)n(C)c2c1)C(F)(F)F (relative stereo) [Example 128, 6-{3-Chloro-4-[3,3,3-trifluoro-2-hydroxy-1-methyl-2-(3-methyl-2-oxo-2,3-dihydro-benzooxazol-5-yl)-propyl]-phenyl}-nicotinic acid] | 1.7 nM |
| C[C@H](c1ccc(Oc2ncc(Cl)cc2C(=O)O)cc1Cl)[C@@](O)(c1ccc2c(c1)n(C)c(=O)n2C)C(F)(F)F (stereo in doubt) [Example 104, 5-Chloro-2-{3-chloro-4-[2-(1,3-dimethyl-2-oxo-2,3-dihydro-1H-benzoimidazol-5-yl)-3,3,3-trifluoro-2-hydroxy-1-methyl-propyl]-phenoxy}-nicotinic acid] | 1.6 nM |
| C[C@H](c1ccc(O)cc1Cl)[C@@](O)(c1ccc2oc(=O)n(C)c2c1)C(F)(F)F (relative stereo) [Example 172, 5-[2-(2-Chloro-4-hydroxy-phenyl)-1-hydroxy-1-trifluoromethyl-propyl]-3-methyl-3H-benzooxazol-2-one] | 0.6 nM |
| C[C@H](c1ccc(Oc2ccc(C(=O)O)c(Cl)c2)cc1Cl)[C@@](O)(c1ccc2oc(=O)n(C)c2c1)C(F)(F)F (relative stereo) [Example 173, 2-Chloro-4-{3-chloro-4-[3,3,3-trifluoro-2-hydroxy-1-methyl-2-(3-methyl-2-oxo-2,3-dihydro-benzooxazol-5-yl)-propyl]-phenoxy}-benzoic acid] | 1.1 nM |
| C[C@H](c1ccc(Oc2cccc(C(=O)O)c2)cc1Cl)[C@@](O)(c1ccc2c(c1)n(C)c(=O)n2C)C(F)(F)F (relative stereo) [Example 99, 3-{3-Chloro-4-[2-(1,3-dimethyl-2-oxo-2,3-dihydro-1H-benzoimidazol-5-yl)-3,3,3-trifluoro-2-hydroxy-1-methyl-propyl]-phenoxy}-benzoic acid] | 1.2 nM |
| C[C@@H](c1ccc(Oc2ccc(C(=O)O)c(Cl)c2)cc1Cl)[C@](O)(c1ccc2c(c1)N(C)S(=O)(=O)N2C)C(F)(F)F (relative stereo) [Example 161, 2-Chloro-4-{3-chloro-4-[2-(1,3-dimethyl-2,2-dioxo-2,3-dihydro-1H-2λ6-benzo[1,2,5]thiadiazol-5-yl)-3,3,3-trifluoro-2-hydroxy-1-methyl-propyl]-phenoxy}-benzoic acid] | 3.6 nM |
| COC(=O)c1cnc(Oc2ccc([C@@H](C)[C@@](O)(c3ccc4c(c3)N(C)C(=O)CO4)C(F)(F)F)c(Cl)c2)nc1 (racemic) [Example 226, 2-{3-Chloro-4-[3,3,3-trifluoro-2-hydroxy-1-methyl-2-(4-methyl-3-oxo-3,4-dihydro-2H-benzo[1,4]oxazin-6-yl)-propyl]-phenoxy}-pyrimidine-5-carboxylic acid methyl ester] | 5.9 nM |
| C[C@H](c1ccc(-c2ccc(C(=O)O)c(F)c2)cc1Cl)[C@@](O)(c1cnc2c(c1)N(C)C(=O)CO2)C(F)(F)F (stereo in doubt) [Example 52, 3′-Chloro-3-fluoro-4′-[3,3,3-trifluoro-2-hydroxy-1-methyl-2-(1-methyl-2-oxo-2,3-dihydro-1H-pyrido[2,3-b][1,4]oxazin-7-yl)-propyl]-biphenyl-4-carboxylic acid] | 122 nM |

More lines, in order of falling Ki, values ahead:

| Ki | SMILES |
| --- | --- |
| 609 nM | C[C@@H](c1cc(-c2cccc(C(=O)O)c2)ccc1Cl)[C@](O)(c1ccc2c(c1)N(C)C(=O)CO2)C(F)(F)F (relative stereo) [Example 18, 4′-Chloro-3′-[3,3,3-trifluoro-2-hydroxy-1-methyl-2-(4-methyl-3-oxo-3,4-dihydro-2H-benzo[1,4]oxazin-6-yl)-propyl]-biphenyl-3-carboxylic acid] |
| 40.2 nM | CCN1C(=O)COc2ccc([C@](O)([C@H](C)c3ccc(-c4ccc(F)c(C(=O)O)c4)cc3Cl)C(F)(F)F)cc21 (relative stereo) [Example 67, 3′-Chloro-4′-[2-(4-ethyl-3-oxo-3,4-dihydro-2H-benzo[1,4]oxazin-6-yl)-3,3,3-trifluoro-2-hydroxy-1-methyl-propyl]-4-fluoro-biphenyl-3-carboxylic acid] |
| 35.3 nM | C[C@H](c1ccc(OC(C)(C)C(=O)O)cc1Cl)[C@@](O)(c1ccc2oc(=O)n(C)c2c1)C(F)(F)F (stereo in doubt) [Example 230, 2-{3-Chloro-4-[3,3,3-trifluoro-2-hydroxy-1-methyl-2-(3-methyl-2-oxo-2,3-dihydro-benzooxazol-5-yl)-propyl]-phenoxy}-2-methyl-propionic acid] |
| 35.1 nM | C[C@@H](c1ccc(-c2ccc(C(=O)O)c(F)c2)cc1Cl)[C@](O)(c1ccc2c(c1)N(C)S(=O)(=O)N2C)C(F)(F)F (relative stereo) [Example 163, 3′-Chloro-4′-[2-(1,3-dimethyl-2,2-dioxo-2,3-dihydro-1H-2λ6-benzo[1,2,5]thiadiazol-5-yl)-3,3,3-trifluoro-2-hydroxy-1-methyl-propyl]-3-fluoro-biphenyl-4-carboxylic acid] |
| 1.7 nM | COC(=O)c1ccc(-c2ccc([C@@H](C)[C@@](O)(c3ccc4oc(=O)n(C)c4c3)C(F)(F)F)c(C(F)(F)F)c2)cc1F (relative stereo) [Example 198, 3-Fluoro-4′-[3,3,3-trifluoro-2-hydroxy-1-methyl-2-(3-methyl-2-oxo-2,3-dihydro-benzooxazol-5-yl)-propyl]-3′-trifluoromethyl-biphenyl-4-carboxylic acid methyl ester] |
| 1.2 nM | COC(=O)c1ccc(-c2ccc([C@@H](C)[C@@](O)(c3ccc4oc(=O)n(C)c4c3)C(F)(F)F)c(Cl)c2)cc1OC (relative stereo) [Example 131, 3′-Chloro-3-methoxy-4′-[3,3,3-trifluoro-2-hydroxy-1-methyl-2-(3-methyl-2-oxo-2,3-dihydro-benzooxazol-5-yl)-propyl]-biphenyl-4-carboxylic acid methyl ester] |
| 1 nM | COC(=O)c1ccc(Oc2ccc([C@H](C)[C@](O)(c3ccc4c(c3)N(C)C(=O)CO4)C(F)(F)F)c(Cl)c2)cc1Cl (single isomer, unassigned) [Example 217] |
| 1 nM | C[C@H](c1ccc(Oc2ncc(C(=O)O)cc2Cl)cc1Cl)[C@@](O)(c1ccc2oc(=O)n(C)c2c1)C(F)(F)F (stereo in doubt) [Example 180, 5-Chloro-6-{3-chloro-4-[3,3,3-trifluoro-2-hydroxy-1-methyl-2-(3-methyl-2-oxo-2,3-dihydro-benzooxazol-5-yl)-propyl]-phenoxy}-nicotinic acid] |
